Patent US10689421B2, “Bacteriocin-producing Paenibacillus ehimensis and application thereof” (National Pingtung University of Science and Technology, priority 2018, dated 2020)

Test system: P. ehimensis NPUST-1
Experiment: Inhibition effect of aquacultural antibiotics against NPUST-1 strain (inhibitory zone)
Assay type: cell-based, Paenibacillus ehimensis
Set-up: inhibitory zone size: unit not given here
Details: TSB agar plate containing P. ehimensis NPUST-1; each antibiotic at its maximum concentration for aquaculture (Table 4)
Description: To find out competent antibiotics for combination with NPUST-1 bacterial strain used as a probiotic, inhibition effect of varies aquacultural antibiotics against NPUST-1 bacterial strain are examined. Detailed testing steps are described as below.
Following antibiotics are examined: amoxicillin, ampicillin, doxycycline, erythromycin, furazolidone, flumequine, ormetoprim, oxytetracycline, sulfadimethoxine, chloramphenicol, gentamycin and kanamycin. The antibiotics concentration (shown in table 4) being tested are the available maximum concentration conformed to the drug regulation for aquaculture. After all the antibiotics are prepared, use TSB agar plate containing P. ehimensis NPUST-1 to determine the antibacterial activity and measure the inhibitory zone of antibiotics.

Row | Compound | inhibitory zone size
1 | CC1(C)S[C@@H]2[C@H](NC(=O)[C@H](N)c3ccc(O)cc3)C(=O)N2[C@H]1C(=O)O [Amoxicillin, amoxicillin] | 2.30 ± 0.10
2 | O=C(N[C@H](CO)[C@H](O)c1ccc([N+](=O)[O-])cc1)C(Cl)Cl [Chloramphenicol, chloramphenicol] | 2.67 ± 0.06
3 | C[C@H]1c2cccc(O)c2C(=O)C2=C(O)[C@]3(O)C(=O)C(C(N)=O)=C(O)[C@@H](N(C)C)[C@@H]3[C@@H](O)[C@@H]21 [Doxycycline, doxycycline] | 3.30 ± 0.00
4 | CC[C@H]1OC(=O)[C@H](C)[C@@H](O[C@H]2C[C@@](C)(OC)[C@@H](O)[C@H](C)O2)[C@H](C)[C@@H](O[C@@H]2O[C@H](C)C[C@H](N(C)C)[C@H]2O)[C@](C)(O)C[C@@H](C)C(=O)[C@H](C)[C@@H](O)[C@]1(C)O [Erythromycin, erythromycin] | 1.73 ± 0.06
5 | CC1CCc2cc(F)cc3c(=O)c(C(=O)O)cn1c23 (centres unmarked) [Flumequine, flumequine] | 5.67 ± 0.06
6 | O=C1OCCN1/N=C/c1ccc([N+](=O)[O-])o1 [Furazolidone, furazolidone] | 1.00 ± 0.00
7 | NC[C@H]1O[C@H](O[C@H]2[C@H](O)[C@@H](O[C@H]3O[C@H](CO)[C@@H](O)[C@H](N)[C@H]3O)[C@H](N)C[C@@H]2N)[C@H](O)[C@@H](O)[C@@H]1O [Kanamycin, kanamycin] | 1.13 ± 0.03
8 | COc1cc(C)c(Cc2cnc(N)nc2N)cc1OC [Ormetoprim, ormetoprim] | 4.60 ± 0.00
9 | CN(C)[C@@H]1C(O)=C(C(N)=O)C(=O)[C@@]2(O)C(O)=C3C(=O)c4c(O)cccc4[C@@](C)(O)[C@H]3[C@H](O)[C@@H]12 [Oxytetracycline, oxytetracycline] | 2.13 ± 0.06
10 | gentamycin | 2.03 ± 2.03

Same assay, conditions: in words

Row | Compound | resistance of the strain NPUST-1 against the antibiotic
11 | CC1(C)S[C@@H]2[C@H](NC(=O)[C@H](N)c3ccccc3)C(=O)N2[C@H]1C(=O)O [Ampiciliin, ampicillin] | resistance
12 | Cc1ccnc(NS(=O)(=O)c2ccc(N)cc2)n1 [sulfamerazine] | resistance

Same assay, conditions: in words; antibiotic at maximum concentration for aquaculture

Row | Compound | inhibition effect against P. ehimensis NPUST-1
13 | CC1(C)S[C@@H]2[C@H](NC(=O)[C@H](N)c3ccccc3)C(=O)N2[C@H]1C(=O)O [Ampiciliin, ampicillin] | no inhibition effect
14 | COc1cc(NS(=O)(=O)c2ccc(N)cc2)nc(OC)n1 [Sulfadimethoxine, sulfadimethoxine] | no inhibition effect
